In BigSolDB 2.1:

O=C1c2ccccc2-c2ccccc21
solubility (mole fraction)
Settings	in diisopropyl ether	in ethanol	in ethyl acetate	in n-butanol	in tetrachloromethane	in toluene
283.15 K	0.0297	0.0209	0.123	0.0267	0.114	0.12
288.15 K	0.0356	0.0241	0.142	0.0321	0.142	0.142
293.15 K	0.0426	0.0301	0.173	0.0402	0.158	0.164
298.15 K	0.0541	0.043	0.221	0.0498	0.192	0.197
303.15 K	0.0642	0.0562	0.244	0.0685	0.241	0.228
308.15 K	0.0815	0.0976	0.284	0.0848	0.291	0.264
313.15 K	0.108	0.144	0.335	0.126	0.347	0.315
318.15 K	0.137	0.207	0.395	0.162	0.403	0.371
323.15 K	0.18	0.292	0.465	0.236	0.462	0.41
328.15 K	0.228	0.409	0.548	0.311	0.519	0.485
333.15 K	0.309	0.548	0.63	0.4	0.582	0.55
